The text below walks through data of US6479490B2, “3-indolyl-4-phenyl-1H-pyrrole-2,5-dione derivatives as inhibitors of glycogen synthase kinase-3β” (Syntex (U.S.A.) LLC, priority 2000, dated 2002).

Counter-ions that a name gives are not always drawn.

T1 sequence (G1T8E2 1-432): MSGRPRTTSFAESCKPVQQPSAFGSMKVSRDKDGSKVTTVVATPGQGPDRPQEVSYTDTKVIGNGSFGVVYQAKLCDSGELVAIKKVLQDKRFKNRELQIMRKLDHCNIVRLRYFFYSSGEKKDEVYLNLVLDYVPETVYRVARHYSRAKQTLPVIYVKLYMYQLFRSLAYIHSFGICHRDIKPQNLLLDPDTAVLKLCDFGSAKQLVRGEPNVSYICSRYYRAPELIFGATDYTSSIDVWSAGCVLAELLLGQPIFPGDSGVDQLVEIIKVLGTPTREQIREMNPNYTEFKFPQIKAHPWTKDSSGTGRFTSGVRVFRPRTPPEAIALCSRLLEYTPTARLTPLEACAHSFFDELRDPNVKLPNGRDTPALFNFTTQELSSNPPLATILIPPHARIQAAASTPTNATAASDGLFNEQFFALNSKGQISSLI

Tested on in one data set: not given
Assay: not given
Conditions: not given
Usually melting point stands for the temperature, or range, at which the solid turns liquid. `Cn1cc(C2=C(c3cccc(NCCCO[Si](C)(C)C(C)(C)C)c3)C(=O)NC2=O)c2ccccc21`: the melting point was 58 to 65 °C. Still for that read-out and setting: then `Cn1cc(C2=C(c3cccc(OCCCO[Si](C)(C)C(C)(C)C)c3)C(=O)NC2=O)c2ccccc21`, with 151.2 to 151.7 °C; and `Cn1cc(C2=C(c3cccc(OCCN)c3)C(=O)NC2=O)c2ccccc21` (as salt: hydrochloride) [II-1, 3-(1-methylindol-3-yl)-4-[3-(2-aminoethyloxy)phenyl]-1H-pyrrole-2,5-dione], with 182.4 to 187 °C. The same measure, in the same setting: to `Cn1cc(C2=C(c3cccc(N4CCOCC4)c3)C(=O)NC2=O)c2ccccc21` (as salt: hydrochloride) [II-15, 3-(1-methylindol-3-yl)-4-(3-morpholin-4-ylphenyl)-1H-pyrrole-2,5-dione hydrochloride] belongs 205.3 to 212.6 °C; to `Cn1cc(C2=C(c3cccc(NCCO)c3)C(=O)NC2=O)c2ccccc21` (as salt: hydrochloride) [II-19, 3-(1-methylindol-3-yl)4-[3-(2-hydroxyethylamino)phenyl]-1H-pyrrole-2,5-dione], 170.3 to 170.6 °C.

Turning to `Cn1cc(C2=C(c3ccccc3OCC3COC(C)(C)O3)C(=O)NC2=O)c2ccccc21` (racemic) [Compound I-2, 3-(1-methylindol-3-yl)-4-[2-((RS)-2,2-dimethyl-1,3-dioxolan-4-ylmethyloxy)phenyl]-1H-pyrrole-2,5-dione], the melting point is 220.8 to 221.2 °C. On the same count and under the same terms, then `Cn1cc(C2=C(c3cccc(NCC(O)CO)c3)C(=O)NC2=O)c2ccccc21` (racemic) [II-9, 3-(1-methylindol-3-yl)-4-{3-[(2-(RS)-hydroxy-2-hydroxymethyl)ethylamino]phenyl}-1H-pyrrole-2,5-dione], with 160 to 163.5 °C; and `CC(CO)Nc1cccc(C2=C(c3cn(C)c4ccccc34)C(=O)NC2=O)c1` (racemic) [II-22, 3-(1-methylindol-3-yl)-4-[3-(2-hydroxy-1-methylethylamino)phenyl]-1H-pyrrole-2,5-dione], with 203.1 to 205.8 °C. Still for that read-out and setting: then `O=C1NC(=O)C(c2cn(CCCO)c3ccc(F)cc23)=C1c1cccc(NCC(O)CO)c1` (racemic) [III-6, 3-{3-[(2,3-dihydroxypropyl)amino]phenyl}-4-[5-fluoro-1-(3-hydroxypropyl)-1H-indol-3-yl]-1H-pyrrole-2,5-dione], with 118 to 125 °C; and `Cn1cc(C2=C(c3cccc(OCC(O)CO)c3)C(=O)NC2=O)c2ccccc21` (stereo in doubt) [II-5, 3-(1-methylindol-3-yl)-4-{3-[((S)-2-hydroxy-2-hydroxymethyl)ethyloxy]-phenyl]-1H-pyrrole-2,5-dione], with 176.9 to 178.1 °C; and `Cn1cc(C2=C(c3cccc(OCC4COC(C)(C)O4)c3)C(=O)NC2=O)c2ccccc21` (stereo in doubt) [II-6, 3-(1-methylindol-3-yl)-4-[3-((R)-2,2-dimethyl-1,3-dioxolan-4-ylmethyloxy)phenyl]-1H-pyrrole-2,5-dione], with 220.8 to 221.2 °C. On the same count and under the same terms, then `Cn1cc(C2=C(c3ccc(OCC(O)CO)cc3)C(=O)NC2=O)c2ccccc21` (stereo in doubt) [IV-6, 3-(1-methylindol-3-yl)-4-{4-[((R)-2-hydroxy-2-hydroxymethyl)ethyloxy]-phenyl}-1H-pyrrole-2,5-dione], with 220.3 to 222.7 °C; and `Cn1cc(C2=C(c3ccccc3OCC(O)CO)C(=O)NC2=O)c2ccccc21` (centres unmarked) [Compound I-1, 3-(1-methylindol-3-yl)-4-{2-[(-2-hydroxy-2-hydroxymethyl)ethyloxy]-phenyl}-1H-pyrrole-2,5-dione], with 245 to 247.1 °C.

Turning to `Cn1cc(C2=C(c3cccc(OC[C@H](O)CO)c3)C(=O)NC2=O)c2ccccc21` [II-3, 3-(1-methylindol-3-yl)-4-{3-[((R)-2-hydroxy-2-hydroxymethyl)ethyloxy]phenyl}-1H-pyrrole-2,5-dione], the melting point lay in the range of 177.7 to 178 °C. `Cn1cc(C2=C(c3cccc(OCCN4CCOCC4)c3)C(=O)NC2=O)c2ccccc21` [II-4, 3-(1-methylindol-3-yl)-4-[3-(2-morpholin-4-ylethyloxy)phenyl]-1H-pyrrole-2,5-dione] showed a melting point of 197.7 to 199 °C. Still for that read-out and setting: then `Cn1cc(C2=C(c3cccc(OC[C@H]4COC(C)(C)O4)c3)C(=O)NC2=O)c2ccccc21` [II-7, 3-(1-methylindol-3-yl)-4-[3-((S)-2,2-dimethyl-1,3-dioxolan-4-ylmethyloxy)phenyl]-1H-pyrrole-2,5-dione], with 186.8 to 187.4 °C; and `Cn1cc(C2=C(c3cccc(NC4COC(C)(C)OC4)c3)C(=O)NC2=O)c2ccccc21` [II-10, 3-(1-methylindol-3-yl)-4-[3-(2,2-dimethyl-1,3-dioxan-5-ylamino)phenyl]-1H-pyrrole-2,5-dione], with 201 to 203 °C; and `Cn1cc(C2=C(c3cccc(OCCCO)c3)C(=O)NC2=O)c2ccccc21` [II-20], with 150.2 to 152.6 °C. Still for that read-out and setting: then `Cn1cc(C2=C(c3cccc(N4CCC(O)CC4)c3)C(=O)NC2=O)c2ccccc21` [II-29, 3-[3-(4-hydroxypiperidin-1-yl)phenyl]-4-(1-methyl-1H-indol-3-yl)-1H-pyrrole-2,5-dione], with 136 to 141 °C; and `CC(O)CCNc1ccc(C2=C(c3cn(C)c4ccccc34)C(=O)NC2=O)cc1` (centres unmarked) [IV-4], with 58 to 61.5 °C.

A further data set addresses T1, truncated form of recombinant rabbit GSK-3β enzyme (Oryctolagus cuniculus, UniProt G1T8E2).
T1 construct: The construct was cloned in pGEX-3X vector; fused on or other part: GST tag at the N-terminus, inferred from the pGEX-3X vector and the glutathione sepharose 4B purification with glutathione elution
Nature of the data set: Inhibition of Glycogen Synthase Kinase-3β, in vitro assay. It counts as biochemical. As to conditions: GSK-3β inhibition, 40 μM ATP, CREB-peptide substrate, 30° C. for 1 h. On the procedure:
The in vitro GSK-3β inhibitory activity of compounds of this invention was determined with a truncated form of recombinant rabbit GSK-3β enzyme.
The construct was cloned in pGEX-3X vector according to the procedure described in Wang, Q. M. et al., J. Biol. Chem. 269, 14566-14574 (1994). Ten amino acids at the N-terminus were deleted to obtain constitutively active GSK-3β ((see Murai H. et al., FEBS Lett. 392,153-60, (1996)). GSK-3β was expressed in BL21 DE3 cells. The cells were grown at 37° C. until they reached mid log phase and then induced with isopropyl-beta-(D)-thiogalactopyranoside (final concentration 0.4 mM) at 30° C. for 2 h. The cells were homogenized and the cell extract was loaded on a glutathione sepharose 4B column. GSK-3β was eluted with glutathione buffer (50 mM Tris pH 8 and 10 mM reduced glutathione). The eluate was collected in 3 minute fractions and assayed for GSK-3β content on a 10% SDS PAGE (polyacrylamide gel electrophoresis). Fractions above 20% peak height were pooled, aliquoted, and stored at −80° C. until used.
The GSK-3β […] was performed in 50 μl reactions in a 96 well polypropylene plate, each reaction containing 20 mM magnesium chloride, 40 μM ATP, 2 mM DTT, 88.5 μM biotinylated and phosphorylated CREB-peptide substrate (biotin-[…](PO4)YR-OH, see Wang, Q. M. et al., J. Biol. Chem. 269, 14566-14574 (1994)), [γ-^33P] ATP (1 μCi), and 2 μl of compounds of this invention in DMSO (various concentrations). 15 μl of GSK-3β (various concentrations) was added and the reaction mixture was incubated at 30° C. for 1 h. The reaction was stopped by transferring 25 μl of the reaction mixture to a phosphocellulose plate containing 130 μl of 1.85% phosphoric acid. The free radionucleotides in the membrane were washed off under vacuum with 1.85% phosphoric acid (5 times). After the last wash, the plate was transferred to an adoptor plate and 50 μl of scintillation cocktail (Microscint-20, Packard, cat. #20-133) was added to each well and the amount of radioactivity was counted in a top counter.
The term IC50 denotes the midpoint of a concentration-inhibition curve. `Cn1cc(C2=C(c3ccccc3OCC(O)CO)C(=O)NC2=O)c2ccccc21` (centres unmarked) [Compound I-1, 3-(1-methylindol-3-yl)-4-{2-[(-2-hydroxy-2-hydroxymethyl)ethyloxy]-phenyl}-1H-pyrrole-2,5-dione]: the IC50 was found to be 194 nM. In the case of `Cn1cc(C2=C(c3cccc(OCCN)c3)C(=O)NC2=O)c2ccccc21` [II-1, 3-(1-methylindol-3-yl)-4-[3-(2-aminoethyloxy)phenyl]-1H-pyrrole-2,5-dione], the IC50 stood at 20 nM. As for `Cn1cc(C2=C(c3cccc(OCCCN)c3)C(=O)NC2=O)c2ccccc21` [II-2, 3-(1-methylindol-3-yl)-4-[3-(3-aminopropyloxy)phenyl]-1H-pyrrole-2,5-dione], the IC50 amounted to 26.4 nM. The same measure, in the same setting: then `Cn1cc(C2=C(c3cccc(OCCN4CCOCC4)c3)C(=O)NC2=O)c2ccccc21` [II-4, 3-(1-methylindol-3-yl)-4-[3-(2-morpholin-4-ylethyloxy)phenyl]-1H-pyrrole-2,5-dione], with 29.6 nM; and `O=C1NC(=O)C(c2c[nH]c3ccccc23)=C1c1cccc(OCCN2CCOCC2)c1` [III-3, 3-(1H-indol-3-yl)-4-[3-(2-morpholin-4-ylethoxy)phenyl]-1H-pyrrole-2,5-dione], with 230 nM; and `Cn1cc(C2=C(c3ccc(OC[C@@H]4COC(C)(C)O4)cc3)C(=O)NC2=O)c2ccccc21` [IV-1, 3-(1-methylindol-3-yl)-4-[4-((R)-2,2-dimethyl-1,3-dioxolan-4-ylmethyloxy)phenyl]-1H-pyrrole-2,5-dione], with 133 nM.
